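Grown in 96-well plates, cells were treated for 48 hours with each compound at five concentrations. Insufficient inhibition: endpoint recorded as highest concentration tested. At the GI50, growth is halved. The concentration for full growth arrest is given as TGI.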
Assays:
Experiment in all cases: NCI tumour cell line growth inhibition, 48 h
[1] = system: OVCAR-8 ovarian
[2] = system: COLO 205 colon
[3] = system: MDA-MB-231 breast
[4] = system: NCI-H23 lung
[5] = system: UACC-257 melanoma
[6] = system: SF-539 CNS
[7] = system: SNB-19 CNS
[8] = system: HS 578T breast
[9] = system: UACC-62 melanoma
[10] = system: MALME-3M melanoma

SMILES | TGI [1] [µM] | TGI [2] [µM] | TGI [3] [µM] | TGI [4] [µM] | TGI [5] [µM] | TGI [6] [µM] | TGI [7] [µM] | TGI [8] [µM] | TGI [9] [µM] | TGI [10] [µM] | GI50 [1] [µM] | GI50 [4] [µM] | GI50 [5] [µM] | GI50 [6] [µM] | GI50 [7] [µM] | GI50 [10] [µM] | GI50 [9] [µM]
Nc1ccc(S(=O)(=O)NCc2nccs2)cc1 | > 100 | 32.7 | 68.2 | 58.9 | 44.5 | 36.2 | > 100 | 68.4 | 41.8 |  |  |  |  |  |  |  | 
COC(=O)c1c(-c2ccccc2)sc(-c2cccc3ccccc23)c1C(=O)OC | > 100 | > 100 |  | > 100 | > 100 | > 100 | > 100 |  | > 100 | > 100 |  |  |  |  |  |  | 
C=C=C(C(=O)OC)S(=O)c1ccc([N+](=O)[O-])cc1[N+](=O)[O-] (centres undefined) | 55.1 | 52.7 |  | > 87.3 | > 79.9 | 55.3 | > 100 |  | > 71.4 | > 86.2 |  |  |  |  |  |  | 
CCOC(=O)C(=O)Nc1c(C(C)C)cccc1C(C)C | > 100 | > 100 |  | > 100 | > 100 | > 100 | > 100 |  | > 100 | > 100 |  |  |  |  |  |  | 
C=C(C=O)CCCC(C)[C@@H]1CCC23CC12CCC1[C@@]2(C)CCC(OC(C)=O)C(C)(C)C2CC(OC2OC(COC(C)=O)C(O)C(O)C2O)[C@]13C (some centres undefined) | 11.1 | 14.4 |  | 14.8 | 11.6 | 11.4 | 13.2 |  | 3.49 | 7.17 |  |  |  |  |  |  | 
COC(=O)c1nc(N)[nH]c(=O)c1CCCCCc1c(C(=O)OC)nc(N)[nH]c1=O | > 50 | > 50 |  | > 50 | > 50 | > 50 | > 50 |  | > 50 | > 50 |  |  |  |  |  |  | 
Nc1nc(CCC(=O)Nc2cccc(C(F)(F)F)c2)cc(-c2ccc3ccccc3c2)n1 | > 100 | > 100 |  | > 100 | > 100 | > 100 | > 100 |  | > 100 | > 100 |  |  |  |  |  |  | 
CCOC(=O)c1cc(/C=C/C(C)=C/C(=O)OC)n(C)c1C | > 100 | > 100 |  | > 100 | > 100 | > 100 | > 100 |  | > 100 | > 100 |  |  |  |  |  |  | 
Cc1c(Cl)cccc1NC(=O)CC1C(=O)Nc2ccccc2S1(=O)=O (centres undefined) | 34.5 |  |  | 37.3 | 77.8 | 28.7 | 52.3 |  | 31.7 | 42.4 |  |  |  |  |  |  | 
COC(=O)C1=C(CS(=O)c2ccccc2[N+](=O)[O-])ON(C)C1c1ccccc1 (centres undefined) | 56.2 | > 100 |  | > 100 | > 100 | 56.2 | > 100 |  | > 100 | > 100 |  |  |  |  |  |  | 
O=[N+]([O-])c1ccc2c(c1)[O][Sn]([I])([I])[O]2 | > 100 |  |  | > 100 | > 100 | > 100 | > 100 |  | > 100 | > 100 | > 100 | 60 | > 100 | > 100 | > 100 | > 100 | 52
